Assay results taken from patent US8389557B2, “Triazole derivatives useful as Axl inhibitors” (Rigel Pharmaceuticals, Inc., priority 2005, dated 2013).

Biological target: T1, Axl (Homo sapiens, UniProt P30530)
T1 construct: endogenous in cells; host or cells: HeLa cells
T1 sequence (P30530 26-894): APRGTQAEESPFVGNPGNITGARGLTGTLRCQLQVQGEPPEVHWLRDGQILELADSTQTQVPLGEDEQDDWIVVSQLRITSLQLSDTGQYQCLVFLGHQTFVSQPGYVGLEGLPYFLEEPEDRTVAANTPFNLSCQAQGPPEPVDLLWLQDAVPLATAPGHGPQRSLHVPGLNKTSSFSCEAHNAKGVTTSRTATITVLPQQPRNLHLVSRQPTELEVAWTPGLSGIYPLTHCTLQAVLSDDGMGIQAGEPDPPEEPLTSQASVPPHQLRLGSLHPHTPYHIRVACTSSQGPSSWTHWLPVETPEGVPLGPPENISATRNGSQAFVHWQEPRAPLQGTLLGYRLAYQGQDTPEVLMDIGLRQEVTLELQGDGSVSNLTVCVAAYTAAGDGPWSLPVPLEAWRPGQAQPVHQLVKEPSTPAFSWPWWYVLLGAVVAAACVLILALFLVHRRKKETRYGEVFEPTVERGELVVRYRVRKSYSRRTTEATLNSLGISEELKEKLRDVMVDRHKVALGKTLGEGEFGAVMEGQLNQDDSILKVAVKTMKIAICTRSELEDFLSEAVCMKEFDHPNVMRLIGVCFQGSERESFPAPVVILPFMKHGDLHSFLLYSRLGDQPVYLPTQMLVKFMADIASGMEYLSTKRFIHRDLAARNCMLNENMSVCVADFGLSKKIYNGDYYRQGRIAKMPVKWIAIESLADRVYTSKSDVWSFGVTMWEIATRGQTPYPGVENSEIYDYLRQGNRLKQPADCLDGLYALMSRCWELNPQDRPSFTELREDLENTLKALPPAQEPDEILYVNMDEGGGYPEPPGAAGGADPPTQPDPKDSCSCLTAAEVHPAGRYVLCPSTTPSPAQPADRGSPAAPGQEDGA
Test: Phospho-Akt in-cell Western assay (inhibition of Axl activity)
Format: cell-based
In short: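 HeLa cells on poly-L-lysine, starved 24 h in 0.5% FCS DMEM with Axl/Fc 500 ng/mL, pre-treated with compound 1 h at 37° C. Axl stimulated 5 min by anti-Axl/anti-mouse antibody cross-linking. Fixed cells probed with anti-phospho-Akt and HRP secondary, chemiluminescence read.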

[1] = inhibition of Axl activity, Table 1

| SMILES | IC50 [1] [µM] | also measured |
| --- | --- | --- |
| Nc1nc(Nc2ccc3c(c2)OCCO3)n(C(=O)c2ccccc2)n1 [compound 92, 3-amino-5-(1,4-benzodioxan-6-yl)amino-1-phenylcarbonyl-1H-1,2,4-triazole] | – | IC50 (Table 2, Hela cells, Axl antibody cross-linking stimulation, phospho-Akt chemiluminescence): 1 to 10 µM |
| COC(=O)n1nc(N)nc1Nc1ccc2c(c1)OCCO2 [compound 93, 3-amino-5-(1,4-benzodioxan-6-yl)amino-1-methoxycarbonyl-1H-1,2,4-triazole] | – | IC50 (Table 8, Hela cells, Axl antibody cross-linking stimulation, phospho-Akt chemiluminescence): > 20 µM |
| Nc1nc(Nc2ccc3c(c2)OCCO3)nn1C(=O)c1ccccc1Cl [compound 94, 5-amino-1-(2-(chloro)phenyl)carbonyl-3-(1,4-benzodioxan-6-yl)amino-1H-1,2,4-triazole] | > 20 | – |
| Nc1nc(Nc2ccc3c(c2)OCCO3)nn1C(=O)c1ccc(Cl)cc1 [compound 95, 5-amino-1-(4-(chloro)phenyl)carbonyl-3-(1,4-benzodioxan-6-yl)amino-1H-1,2,4-triazole] | 1 to 10 | – |
| Cc1cccc(C(=O)n2nc(Nc3ccc4c(c3)OCCO4)nc2N)c1 [compound 96, 5-amino-3-(1,4-benzodioxan-6-yl)amino-1-(3-(methyl)phenyl)carbonyl-1H-1,2,4-triazole] | 1 to 10 | – |
| Cc1ccccc1C(=O)n1nc(Nc2ccc3c(c2)OCCO3)nc1N [compound 97, 5-amino-3-(1,4-benzodioxan-6-yl)amino-1-(2-(methyl)phenyl)carbonyl-1H-1,2,4-triazole] | 10 to 20 | – |
| COc1cccc(C(=O)n2nc(Nc3ccc4c(c3)OCCO4)nc2N)c1 [compound 98, 5-amino-3-(1,4-benzodioxan-6-yl)amino-1-(3-(methoxy)phenyl)carbonyl-1H-1,2,4-triazole] | 1 to 10 | – |
| Nc1nc(Nc2ccc3c(c2)OCCO3)nn1C(=O)c1ccccc1F [compound 99, 5-amino-3-(1,4-benzodioxan-6-yl)amino-1-(2-(fluoro)phenyl)carbonyl-1H-1,2,4-triazole] | 10 to 20 | – |
| Nc1nc(Nc2ccc3c(c2)OCCO3)nn1C(=O)c1ccc(F)cc1 [compound 100, 5-amino-3-(1,4-benzodioxan-6-yl)amino-1-(4-(fluoro)phenyl)carbonyl-1H-1,2,4-triazole] | > 20 | – |
| Nc1nc(Nc2ccc3c(c2)OCCO3)nn1C(=O)c1cccc(Cl)c1 [compound 101, 5-amino-1-(3-(chloro)phenyl)carbonyl-3-(1,4-benzodioxan-6-yl)amino-1H-1,2,4-triazole] | 1 to 10 | – |
| COc1ccc(C(=O)n2nc(Nc3ccc4c(c3)OCCO4)nc2N)cc1 [compound 102, 5-amino-3-(1,4-benzodioxan-6-yl)amino-1-(4-(methyloxy)phenyl)carbonyl-1H-1,2,4-triazole] | 1 to 10 | – |
| CCOC(=O)c1cc2cc(Nc3nc(N)n(C(=O)c4cccc(OC(C)C)c4)n3)ccc2o1 [compound 103, 5-amino-3-(2-(ethoxycarbonyl)benzofuran-5-yl)amino-1-(3-(iso-propoxy)phenyl)carbonyl-1H-1,2,4-triazole] | – | IC50 (Table 5, Hela cells, Axl antibody cross-linking stimulation, phospho-Akt chemiluminescence): > 20 µM |
| Cc1ccc(C(=O)n2nc(Nc3ccc4c(c3)OCCO4)nc2N)cc1 [compound 104, 5-amino-3-(1,4-benzodioxan-6-yl)amino-1-(4-(methyl)phenyl)carbonyl-1H-1,2,4-triazole] | 1 to 10 | – |
| Nc1nc(Nc2ccc3c(c2)OCCO3)nn1C(=O)c1cccc(F)c1 [compound 105, 5-amino-3-(1,4-benzodioxan-6-yl)amino-1-(3-(fluoro)phenyl)carbonyl-1H-1,2,4-triazole] | > 20 | – |
| COc1ccccc1C(=O)n1nc(Nc2ccc3c(c2)OCCO3)nc1N [compound 106, 5-amino-3-(1,4-benzodioxan-6-yl)amino-1-(2-(methyloxy)phenyl)carbonyl-1H-1,2,4-triazole] | > 20 | – |
| CC(=O)Oc1ccc(C(=O)n2nc(Nc3ccc4c(c3)OCCO4)nc2N)cc1 [compound 109, 1-(4-(Acetoxy)phenyl)carbonyl-5-amino-3-(1,4-benzodioxan-6-yl)amino-1H-1,2,4-triazole] | 1 to 10 | – |
| CC(=O)Oc1cccc(C(=O)n2nc(Nc3ccc4c(c3)OCCO4)nc2N)c1 [compound 110, 1-(3-(Acetoxy)phenyl)carbonyl-5-amino-3-(1,4-benzodioxan-6-yl)amino-1H-1,2,4-triazole] | 1 to 10 | – |
| CC(C)Oc1ccc(Nc2nc(N)n(C(=O)c3ccc(OC(C)C)cc3)n2)cc1 [compound 111, 5-amino-3-[4-(iso-propoxy)phenylamino]-1-(4-(iso-propoxy)phenyl)carbonyl-1H-1,2,4-triazole] | 1 to 10 | – |

| SMILES | IC50 [1] [µM] | also measured |
| --- | --- | --- |
| CC(C)Oc1cccc(C(=O)n2nc(Nc3ccc4c(c3)OCCO4)nc2N)c1 [compound 112, 5-amino-3-(1,4-benzodioxan-6-yl)amino-1-(3-(iso-propoxy)phenyl)carbonyl-1H-1,2,4-triazole] | 1 to 10 | – |
| CC(C)Oc1ccc(C(=O)n2nc(Nc3ccc4c(c3)OCCO4)nc2N)cc1 [compound 113, 5-amino-3-(1,4-benzodioxan-6-yl)amino-1-(4-(iso-propoxy)phenyl)carbonyl-1H-1,2,4-triazole] | 1 to 10 | – |
| CCOc1ccc(C(=O)n2nc(Nc3ccc4c(c3)OCCO4)nc2N)cc1 [compound 114] | 1 to 10 | – |
| CC(C)Oc1ccc(C(=O)n2nc(Nc3cccc(OC4CCCC4)c3)nc2N)cc1 [compound 116, 5-amino-3-[3-(cyclopentoxy)phenylamino]-1-(4-(iso-propoxy)phenyl)carbonyl-1H-1,2,4-triazole] | > 20 | – |
| COc1ccc(Nc2nc(N)n(C(=O)c3ccc(OC(C)C)cc3)n2)cc1 [compound 117, 5-amino-1-(4-(iso-propoxy)phenyl)carbonyl-3-[4-(methoxy)phenylamino]-1H-1,2,4-triazole] | 1 to 10 | – |
| CCOc1ccc(Nc2nc(N)n(C(=O)c3ccc(OC(C)C)cc3)n2)cc1 [compound 118, 5-amino-3-[4-(ethoxy)phenylamino]-1-(4-(iso-propoxy)phenyl)carbonyl-1H-1,2,4-triazole] | 1 to 10 | – |
| CC(=O)Oc1ccccc1C(=O)n1nc(Nc2ccc3c(c2)OCCO3)nc1N [compound 119, 1-(2-(acetoxy)phenyl)carbonyl-5-amino-3-(1,4-benzodioxan-6-yl)amino-1H-1,2,4-triazole] | 1 to 10 | – |
| Nc1nc(Nc2ccc3c(c2)OCCO3)nn1C(=O)c1ccc(OC2CCCC2)cc1 [compound 120] | > 20 | – |
| COc1cccc(Nc2nc(N)n(C(=O)c3ccc(OC(C)C)cc3)n2)c1 [compound 121, 5-amino-1-(4-(iso-propoxy)phenyl)carbonyl-3-[3-(methoxy)phenylamino]-1H-1,2,4-triazole] | 1 to 10 | – |
| CC(C)Oc1ccc(C(=O)n2nc(Nc3cccc(OC(C)C)c3)nc2N)cc1 [compound 122, 5-amino-3-[3-(iso-propoxy)phenylamino]-1-(4-(iso-propoxy)phenyl)carbonyl-1H-1,2,4-triazole] | 1 to 10 | – |
| Cc1ccc(C(=O)n2nc(Nc3ccc(F)cc3)nc2N)cc1 [compound 123, 5-amino-3-[4-(fluoro)phenylamino]-1-(4-(methyl)phenyl)carbonyl-1H-1,2,4-triazole] | 10 to 20 | – |
| Cc1ccc(C(=O)n2nc(Nc3cccc(F)c3)nc2N)cc1 [compound 124, 5-amino-3-[3-(fluoro)phenylamino]-1-(4-(methyl)phenyl)carbonyl-1H-1,2,4-triazole] | 10 to 20 | – |
| CCOc1cccc(Nc2nc(N)n(C(=O)c3ccc(OC(C)C)cc3)n2)c1 [compound 125, 5-amino-3-[3-(ethoxy)phenylamino]-1-(4-(iso-propoxy)phenyl)carbonyl-1H-1,2,4-triazole] | 1 to 10 | – |
| COC(=O)COc1ccc(C(=O)n2nc(Nc3ccc4c(c3)OCCO4)nc2N)cc1 [compound 126, 5-amino-3-(1,4-benzodioxan-6-yl)amino-1-[4-(methoxycarbonylmethoxy)phenyl)carbonyl-1H-1,2,4-triazole] | 1 to 10 | – |
| Nc1nc(Nc2ccc3c(c2)OCCO3)nn1C(=O)c1cccc(OC2CCCC2)c1 [compound 127, 5-amino-1-(3-(cyclopentoxy)phenyl)carbonyl-3-(1,4-benzodioxan-6-yl)amino-1H-1,2,4-triazole] | 1 to 10 | – |
| CCOc1cccc(C(=O)n2nc(Nc3ccc4c(c3)OCCO4)nc2N)c1 [compound 128, 5-amino-1-(3-(ethoxy)phenyl)carbonyl-3-(1,4-benzodioxan-6-yl)amino-1H-1,2,4-triazole] | > 20 | – |
| Cc1ccc(C(=O)n2nc(Nc3ccccc3F)nc2N)cc1 [compound 129, 5-amino-3-[2-(fluoro)phenylamino]-1-(4-(methyl)phenyl)carbonyl-1H-1,2,4-triazole] | > 20 | – |
